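Growth conditions: 96-well plates. Treatment: test compound, 48 hours, 5 concentrations. Analysis: linear interpolation between bracketing concentrations; unreached endpoints set to highest concentration. At the GI50, growth is halved. TGI marks complete inhibition of growth.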
Tests used:
Assay in all cases: NCI-60 cell line screen, 48 h
[1] = test system: HCC-2998 colon
[2] = test system: UO-31 renal
[3] = test system: SK-MEL-5 melanoma
[4] = test system: SF-539 CNS
[5] = test system: SK-MEL-28 melanoma
[6] = test system: A549 NSCLC
[7] = test system: MOLT-4 leukemia
[8] = test system: HL-60(TB) leukemia
[9] = test system: KM12 colon
[10] = test system: UACC-257 melanoma

Structure (SMILES) | GI50 [1] [µM] | TGI [1] [µM] | GI50 [2] [µM] | TGI [2] [µM] | GI50 [3] [µM] | TGI [3] [µM] | GI50 [4] [µM] | TGI [4] [µM] | GI50 [5] [µM] | TGI [5] [µM] | TGI [6] [µM] | TGI [7] [µM] | TGI [8] [µM] | TGI [9] [µM] | TGI [10] [µM] | GI50 [6] [µM] | GI50 [7] [µM] | GI50 [8] [µM] | GI50 [9] [µM] | GI50 [10] [µM]
OCCN1CCN(c2nc(Nc3ccc(-c4nc5ccccc5[nH]4)cc3)c3cn[nH]c3n2)CC1 | 1.74 | 3.33 | 1.64 | 3.14 | 1.75 | 3.15 | 1.7 | 3.08 | 1.65 | 3.05 | – | – | – | – | – | – | – | – | – | –
Cc1n(-c2ccccc2)c2c([n+]1Cc1ccc([N+](=O)[O-])cc1)C(=O)c1ccccc1C2=O | – | 4.2 | – | 26.6 | – | 3.29 | – | 3.88 | – | 3.59 | 10.7 | 2.57 | 1.35 | 6.54 | 3.16 | – | – | – | – | –
Nc1nc(Sc2ccc([N+](=O)[O-])cn2)c2[nH]cnc2n1 | – | 96.8 | – | 24.7 | – | 31.2 | – | > 100 | – | > 100 | 62.1 | > 35.8 | > 59.4 | > 38.1 | > 100 | – | – | – | – | –
Cc1cc(=O)[nH]c(NN2C(Cl)C(=O)C2c2c(O)ccc3ccccc23)n1 (stereo not given) | – | 32.6 | – | > 100 | – | 29.9 | – | 41.1 | – | 44.1 | > 100 | 64.1 | 49.3 | 61.5 | > 100 | – | – | – | – | –
CCN(CC)CCOCC1CCCN2CCCCC12 (stereo not given) | – | > 100 | – | > 100 | – | > 100 | – | > 100 | – | > 100 | > 100 | > 100 | > 100 | > 100 | > 100 | – | – | – | – | –
NS(=O)(=O)c1ccc(N=Nc2nc3[nH]cnc(=S)c3[nH]2)cc1 | – | 2.83 | – | > 43.8 | – | 24.8 | – | 34.4 | – | > 100 | > 89.6 | 4.19 | 16.7 | > 100 | > 87.6 | – | – | – | – | –
Cc1n(CC(C)C)c2c([n+]1CC(=O)c1ccc([N+](=O)[O-])cc1)C(=O)c1ccccc1C2=O | – | 1.18 | – | 30.2 | – | < 0.0309 | – | < 0.0387 | – | 0.902 | 0.933 | 0.0742 | < 0.01 | 0.386 | 0.0293 | – | – | – | – | –
NC(N)=NCCCC(NCc1c2ccccc2[n+]([O-])c2ccccc12)C(=O)O (stereo not given) | – | > 100 | – | 89.8 | – | > 100 | – | – | – | > 100 | > 100 | > 100 | 58.7 | > 100 | > 100 | – | – | – | – | –
COc1cc(O)c2c(c1O)C(=O)c1cc(C)ncc1C2=O | – | > 50 | – | 42.5 | – | 30 | – | > 50 | – | > 50 | > 50 | > 50 | > 50 | > 50 | 36.6 | – | – | – | – | –
c1ccc(C2=NN[C@H](c3cn(-c4ccccc4)nc3-c3ccccc3)C2)cc1 | > 100 | > 100 | 2.87 | > 100 | 7.66 | > 100 | 9.11 | > 100 | 4.89 | > 100 | > 100 | > 100 | > 100 | > 100 | > 100 | 4.02 | > 100 | > 100 | > 100 | > 100
C=CCCCCn1c2ccccc2c2c(C)c3c[n+](C)ccc3c(C)c21 | – | – | – | 19.4 | – | 1.36 | – | 1.83 | – | 1.41 | 4.52 | 1.28 | 0.921 | 1.6 | 1.47 | – | – | – | – | –
CCCCCCCSCC1OC(n2cnc3c(N)ncnc32)C(O)C1O (stereo not given) | – | 66.9 | – | – | – | 30.8 | – | > 100 | – | > 100 | > 100 | 62.4 | 27.3 | – | 56.9 | – | – | – | – | –
CCCC(=O)[O-].CCCC(=O)[O-].N.N.N.N.[Co+3].[O-][Cl+3]([O-])([O-])[O-] | – | > 100 | – | > 100 | – | > 100 | – | > 100 | – | > 100 | > 100 | > 100 | > 100 | > 100 | > 100 | – | – | – | – | –
Oc1c2c(c3c4c1N=CC=4CCN=3)C1(C=C(Br)C(O)C(Br)=C1)CCN2 (stereo not given) | – | 4.61 | – | 28 | – | 2.67 | – | 4.17 | – | 21.5 | 12.5 | – | 2.08 | 6.16 | 1.27 | – | – | – | – | –

From PubChem BioAssay (NCI)
